# From patent US20150284353A1, “Sesquiterpene lactone-based pharmaceutical composition for treating gastrointestinal diseases” (CHO DANG PHARM. CO., LTD., priority 2012, published 2015)
# Entries after “also recorded” stand apart in the source; their conditions may differ. Marks after values point to notes of the source that are not given here.
# Legend:
# [1] = test system: HCl-Ethanol inducing gastritis model; assay: HCl-Ethanol inducing gastritis model; type: in vivo, white rats; settings: for Lesion inhibition rate: Table 2, ineffective compounds, dose not given; for ED50: regression analysis, read-out: 50% effective dose (ED50)
# Method: After white rats have been fasted for 24 hours, CD-101, CD-102 and CD-103 compound have been orally administered according to method disclosed in Mizui et al., Jap. J. Pharmacol. 33: pp. 939-945 (1983). After 1 hour, 1.5 ml of 60% ethanol including 150 mM HCl has been orally administered to each animal. 1 hour later, animals have been sacrificed by cervical dislocation. After removing the stomach, the stomach has been fixed by injection of 13 ml of 2% formalin for 1 hour. After fixed stomach has been spread out, the lesion area has been measured using the photo by digital camera. Computer program Image J 1.38 (NIH, Bethesda, Md.) has been applied for measuring gastric lesion area (mm^2). The lesion inhibition rate has been calculated according to following equation. Further, 50% effective dose (ED50) has been also calculated using regression analysis.
# Lesion inhibition rate(%)={gastric lesion area of control group(mm^2)−gastric lesion area of drug administration group(mm^2)}/gastric lesion area of control group(mm^2)×100
# [2] = test system: indomethacin inducing stomach ulcer model; assay: indomethacin inducing stomach ulcer model; type: in vivo, white rats; settings: oral; for ED50: regression analysis, read-out: 50% effective dose (ED50)
# Method: After white rats have been fasted for 24 hours, CD-101, CD-102 and CD-103 compound have been orally administered according to method disclosed in Yamasaki et al., Jap. J. Pharmacol. 49: pp. 441-448 (1989). After 1 hour, indomethacin (50 mg/kg) has been orally administered to each animal. After fasting for 5 hours, animals have been sacrificed by cervical dislocation. After removing the stomach, the stomach has been fixed by injection of 13 ml of 2% formalin for 1 hour. After fixed stomach has been spread out, the lesion area has been measured using the photo by digital camera. Computer program Image J 1.38 (NIH, Bethesda, Md.) has been applied for measuring gastric lesion area (mm^2). The lesion inhibition rate and 50% effective dose (ED50) have been calculated as the same manner of HCl-EtOH model.
# [3] = test system: Chinese hamster lung (CHL) cell; assay: Chromosomal aberration test; type: cell-based; settings: for induction of chromosomal aberration: CHL cell
# Excerpt: For measuring the induction of chromosomal aberration, the chromosomal aberration test has been carried out using Chinese hamster lung (CHL) cell. 2 kinds of methods have been adopted, such as, metabolic activation method (+S9) using metabolic activation system and direct method (−S9) without metabolic activation system.
# For determining the test material reacting concentration, the cell growth inhibition test has been carried out. The test material has been dissolved and diluted in dimethyl sulfoxide (DMSO). Regardless of metabolic activation system, 12 concentration steps (2.43, 4.87, 9.75, 19.5, 39.1, 78.1, 156.3, 312.5, 625, 1250, 2500, 5000 μg/ml) of test material have been prepared. The cells have been cultured for 24 hours as the same way of main test. […] The medium has been further cultured for 18 hours.
# Based upon the data of cell growth inhibition test, maximum concentration has been determined when the cell growth has been inhibited up to 50% as the relative cell numbers.
# Regardless of metabolic activation system, the test materials have been prepared after 24 hours from the initiation of test. Then, the number of chromosomal aberration has been counted.
# [4] = Rattus norvegicus, dose 1 mg/kg, read-out: Lesion inhibition rate
# [5] = Rattus norvegicus, dose 3 mg/kg, read-out: Lesion inhibition rate
# [6] = Rattus norvegicus, dose 10 mg/kg, read-out: Lesion inhibition rate
# [7] = Rattus norvegicus, oral, dose 1 mg/kg, read-out: Lesion inhibition rate
# [8] = Rattus norvegicus, oral, dose 3 mg/kg, read-out: Lesion inhibition rate
# [9] = Rattus norvegicus, oral, dose 10 mg/kg, read-out: Lesion inhibition rate
structure (smiles),measurement,setting,value
CO[C@]1(C)CC[C@H]2C(CN(C)CCO)C(=O)O[C@@H]2[C@@H](O)[C@]2(C)CC[C@H]21 (stereo partly drawn),Lesion inhibition rate,[1],no effect
CO[C@]1(C)CC[C@H]2C(CN(C)CCO)C(=O)O[C@@H]2[C@@H]2[C@H]1CC[C@@]2(C)O (stereo partly drawn),Lesion inhibition rate,[1],no effect
C=C1CC[C@@H]2[C@](C)(CO)[C@H](O)CC[C@@]2(C)[C@@H]1C/C=C1/C(=O)OC[C@H]1O,Lesion inhibition rate,[1],no effect
CN(C)c1ccc(/C=C2\CCOC2=O)cc1,Lesion inhibition rate,[1],no effect
CC(C)=C1C(=O)COC1=O,Lesion inhibition rate,[1],no effect
CC1=C2C3OC(=O)[C@@H](C)[C@@H]3CC[C@@]2(C)C=CC1=O (stereo partly drawn),Lesion inhibition rate,[1],no effect
C=C1C(=O)O[C@@H]2[C@@H](O)[C@]3(C)CC[C@H]3[C@](C)(OC)CC[C@@H]12 [CD-101],inhibition at 1 mg/kg,[2]; [4],26.9%
same,inhibition at 3 mg/kg,[2]; [5],56.6%
same,inhibition at 10 mg/kg,[2]; [6],73.1%
same,ED50,[2]; Rattus norvegicus,2.78 ± 0.1 mg/kg
same,Gastric lesion area,[2]; dose 1 mg/kg,43.8 ± 7.7 mm^2
same,Gastric lesion area,[2]; dose 3 mg/kg,26.0 ± 4.7* mm^2
same,Gastric lesion area,[2]; dose 10 mg/kg,16.1 ± 4.8* mm^2
same,Results (chromosomal aberration),"[3]; +S9, dose 10 μg/ml",negative
same,Results (chromosomal aberration),"[3]; +S9, dose 20 μg/ml",negative
same,Results (chromosomal aberration),"[3]; +S9, dose 40 μg/ml",negative
same,induction of chromosomal aberration,[3],neither cytotoxicity nor chromosomal aberration; also recorded: do not induce the chromosomal aberration
same,Results (chromosomal aberration),"[3]; −S9, dose 2.5 μg/ml",negative
same,Results (chromosomal aberration),"[3]; −S9, dose 5 μg/ml",negative
same,Results (chromosomal aberration),"[3]; −S9, dose 10 μg/ml",negative
same,inhibition at 1 mg/kg,[1]; [7],42.3%
same,inhibition at 3 mg/kg,[1]; [8],74.7%
same,inhibition at 10 mg/kg,[1]; [9],91.8%
same,ED50,"[1]; Rattus norvegicus, oral",1.24 ± 0.1 mg/kg
same,Gastric lesion area,"[1]; oral, dose 1 mg/kg",135.1 ± 43.1 mm^2
same,Gastric lesion area,"[1]; oral, dose 3 mg/kg",59.3 ± 23.5* mm^2
same,Gastric lesion area,"[1]; oral, dose 10 mg/kg",19.2 ± 11.7* mm^2
C=C1CC[C@H]2C(=C)C(=O)O[C@@H]2C2[C@H]1CC[C@@]2(C)O (stereo partly drawn) [CD-102],inhibition at 1 mg/kg,[2]; [4],41.6%
same,inhibition at 3 mg/kg,[2]; [5],56.1%
same,inhibition at 10 mg/kg,[2]; [6],77.2%
same,ED50,[2]; Rattus norvegicus,1.82 mg/kg
same,Gastric lesion area,[2]; dose 1 mg/kg,35.0 ± 5.2 mm^2
same,Gastric lesion area,[2]; dose 3 mg/kg,26.3 ± 6.8* mm^2
same,Gastric lesion area,[2]; dose 10 mg/kg,13.6 ± 2.9* mm^2
same,Results (chromosomal aberration),"[3]; +S9, dose 5 μg/ml",negative
same,Results (chromosomal aberration),"[3]; +S9, dose 10 μg/ml",negative
same,Results (chromosomal aberration),"[3]; +S9, dose 20 μg/ml",negative
same,induction of chromosomal aberration,[3],do not induce the chromosomal aberration
same,Results (chromosomal aberration),"[3]; −S9, dose 1.25 μg/ml",negative
same,Results (chromosomal aberration),"[3]; −S9, dose 2.5 μg/ml",negative
same,Results (chromosomal aberration),"[3]; −S9, dose 5 μg/ml",negative
same,inhibition at 1 mg/kg,[1]; [7],43%
same,inhibition at 3 mg/kg,[1]; [8],70.4%
same,inhibition at 10 mg/kg,[1]; [9],94.9%
same,ED50,"[1]; Rattus norvegicus, oral",1.31 mg/kg
same,Gastric lesion area,"[1]; oral, dose 1 mg/kg",133.5 ± 21.0* mm^2
same,Gastric lesion area,"[1]; oral, dose 3 mg/kg",69.4 ± 18.4* mm^2
same,Gastric lesion area,"[1]; oral, dose 10 mg/kg",11.9 ± 10.0* mm^2
C=C1C(=O)O[C@@H]2[C@@H]3[C@@H](CC[C@@]3(C)O)[C@](C)(OC)CC[C@@H]12 [CD-103],inhibition at 1 mg/kg,[2]; [4],37.9%
same,inhibition at 3 mg/kg,[2]; [5],57.3%
same,inhibition at 10 mg/kg,[2]; [6],74%
same,ED50,[2]; Rattus norvegicus,2.06 mg/kg
same,Gastric lesion area,[2]; dose 1 mg/kg,37.2 ± 7.0 mm^2
same,Gastric lesion area,[2]; dose 3 mg/kg,25.6 ± 4.7* mm^2
same,Gastric lesion area,[2]; dose 10 mg/kg,15.6 ± 3.1* mm^2
same,Results (chromosomal aberration),"[3]; +S9, dose 2.5 μg/ml",negative
same,Results (chromosomal aberration),"[3]; +S9, dose 5 μg/ml",negative
same,Results (chromosomal aberration),"[3]; +S9, dose 10 μg/ml",negative
same,induction of chromosomal aberration,[3],do not induce the chromosomal aberration
same,Results (chromosomal aberration),"[3]; −S9, dose 0.625 μg/ml",negative
same,Results (chromosomal aberration),"[3]; −S9, dose 1.25 μg/ml",negative
same,Results (chromosomal aberration),"[3]; −S9, dose 2.5 μg/ml",negative
same,inhibition at 30 mg/kg,"[1]; Rattus norvegicus, oral, 30 mg/kg administration group, read-out: lesion inhibition rate",99.5%
same,inhibition at 1 mg/kg,[1]; [7],56.9%
same,inhibition at 3 mg/kg,[1]; [8],66.9%
same,inhibition at 10 mg/kg,[1]; [9],99.5%
same,ED50,"[1]; Rattus norvegicus, oral",2.55 mg/kg
same,Gastric lesion area,"[1]; oral, dose 1 mg/kg",80.8 ± 19.4* mm^2
same,Gastric lesion area,"[1]; oral, dose 3 mg/kg",62.1 ± 32.2* mm^2
same,Gastric lesion area,"[1]; oral, dose 10 mg/kg",1.0 ± 0.4* mm^2
"CO[C@@]12[C@H](COC(N)=O)C3=C(C(=O)C(C)=C(N)C3=O)N1C[C@@H]1N[C@@H]12 [Mitomycin C, reference compound]",Results (chromosomal aberration),"[3]; −S9, dose 0.5 μg/ml",positive
"O=C(NC(Cc1cc(=O)[nH]c2ccccc12)C(=O)O)c1ccc(Cl)cc1 (stereo not drawn) [Rebamipide, reference compound]",inhibition at 50 mg/kg,"[2]; Rattus norvegicus, dose 50 mg/kg, read-out: Lesion inhibition rate",49.6%
same,Gastric lesion area,[2]; dose 50 mg/kg,30.2 ± 6.4* mm^2
same,inhibition at 50 mg/kg,"[1]; Rattus norvegicus, oral, dose 50 mg/kg, read-out: Lesion inhibition rate",30%
same,Gastric lesion area,"[1]; oral, dose 50 mg/kg",163.9 ± 15.6 mm^2
C=C1C(=O)O[C@@H]2/C=C(\C)CC/C=C(\C)C[C@@H](OC(C)=O)C12 (stereo partly drawn) [reference compound],Result (chromosomal aberration test),"[3]; Table 5, + S9",positive positive
same,Result (chromosomal aberration test),"[3]; Table 5, − S9",positive positive
C=C1C(=O)O[C@@H]2/C=C(\C)CCC(O)C(C)(O)C[C@@H](OC(C)=O)C12 (stereo partly drawn) [reference compound],Result (chromosomal aberration test),"[3]; Table 5, + S9",positive positive
same,Result (chromosomal aberration test),"[3]; Table 5, − S9",positive positive
CC(=O)O[C@@H]1/C=C(\C)CCC/C(C)=C/[C@H]2OC(=O)[C@H](CN(C)C)C12 (stereo partly drawn) [reference compound],Result (chromosomal aberration test),"[3]; Table 5, + S9",positive positive
same,Result (chromosomal aberration test),"[3]; Table 5, − S9",positive positive
